Measured values: US20250114345A1, “COMPOUNDS AND COMPOSITIONS AS CBP/P300 DEGRADERS AND USES THEREOF” (Oncopia Therapeutics, Inc. d/b/a/ SK Life Science Labs, priority 2023, published 2025)

Biological target: T1, p300 (Homo sapiens, UniProt Q09472)
T1 construct: host or cells: A549 P300 HiBit cells
Assay: P300 degradation, HiBit technology in A549 P300 HiBit cells (2 h)
Format: cell-based
Settings: 2 hrs post treatment; for Dmax: A549, A549 P300 HiBit cells; for DC50: A549 P300 HiBit cells
In short: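 Cells: A549 HiBiT-tagged lines, 0.2×10^4/well, F-12K + 10% HI-FBS, equilibrated overnight. Tx: serial dilution of cpd (10 mM DMSO stock). Readout: HiBiT lytic reagent, 10 min RT shaking, luminescence → potency, Dmax.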

T1 sequence (Q09472 whole entry): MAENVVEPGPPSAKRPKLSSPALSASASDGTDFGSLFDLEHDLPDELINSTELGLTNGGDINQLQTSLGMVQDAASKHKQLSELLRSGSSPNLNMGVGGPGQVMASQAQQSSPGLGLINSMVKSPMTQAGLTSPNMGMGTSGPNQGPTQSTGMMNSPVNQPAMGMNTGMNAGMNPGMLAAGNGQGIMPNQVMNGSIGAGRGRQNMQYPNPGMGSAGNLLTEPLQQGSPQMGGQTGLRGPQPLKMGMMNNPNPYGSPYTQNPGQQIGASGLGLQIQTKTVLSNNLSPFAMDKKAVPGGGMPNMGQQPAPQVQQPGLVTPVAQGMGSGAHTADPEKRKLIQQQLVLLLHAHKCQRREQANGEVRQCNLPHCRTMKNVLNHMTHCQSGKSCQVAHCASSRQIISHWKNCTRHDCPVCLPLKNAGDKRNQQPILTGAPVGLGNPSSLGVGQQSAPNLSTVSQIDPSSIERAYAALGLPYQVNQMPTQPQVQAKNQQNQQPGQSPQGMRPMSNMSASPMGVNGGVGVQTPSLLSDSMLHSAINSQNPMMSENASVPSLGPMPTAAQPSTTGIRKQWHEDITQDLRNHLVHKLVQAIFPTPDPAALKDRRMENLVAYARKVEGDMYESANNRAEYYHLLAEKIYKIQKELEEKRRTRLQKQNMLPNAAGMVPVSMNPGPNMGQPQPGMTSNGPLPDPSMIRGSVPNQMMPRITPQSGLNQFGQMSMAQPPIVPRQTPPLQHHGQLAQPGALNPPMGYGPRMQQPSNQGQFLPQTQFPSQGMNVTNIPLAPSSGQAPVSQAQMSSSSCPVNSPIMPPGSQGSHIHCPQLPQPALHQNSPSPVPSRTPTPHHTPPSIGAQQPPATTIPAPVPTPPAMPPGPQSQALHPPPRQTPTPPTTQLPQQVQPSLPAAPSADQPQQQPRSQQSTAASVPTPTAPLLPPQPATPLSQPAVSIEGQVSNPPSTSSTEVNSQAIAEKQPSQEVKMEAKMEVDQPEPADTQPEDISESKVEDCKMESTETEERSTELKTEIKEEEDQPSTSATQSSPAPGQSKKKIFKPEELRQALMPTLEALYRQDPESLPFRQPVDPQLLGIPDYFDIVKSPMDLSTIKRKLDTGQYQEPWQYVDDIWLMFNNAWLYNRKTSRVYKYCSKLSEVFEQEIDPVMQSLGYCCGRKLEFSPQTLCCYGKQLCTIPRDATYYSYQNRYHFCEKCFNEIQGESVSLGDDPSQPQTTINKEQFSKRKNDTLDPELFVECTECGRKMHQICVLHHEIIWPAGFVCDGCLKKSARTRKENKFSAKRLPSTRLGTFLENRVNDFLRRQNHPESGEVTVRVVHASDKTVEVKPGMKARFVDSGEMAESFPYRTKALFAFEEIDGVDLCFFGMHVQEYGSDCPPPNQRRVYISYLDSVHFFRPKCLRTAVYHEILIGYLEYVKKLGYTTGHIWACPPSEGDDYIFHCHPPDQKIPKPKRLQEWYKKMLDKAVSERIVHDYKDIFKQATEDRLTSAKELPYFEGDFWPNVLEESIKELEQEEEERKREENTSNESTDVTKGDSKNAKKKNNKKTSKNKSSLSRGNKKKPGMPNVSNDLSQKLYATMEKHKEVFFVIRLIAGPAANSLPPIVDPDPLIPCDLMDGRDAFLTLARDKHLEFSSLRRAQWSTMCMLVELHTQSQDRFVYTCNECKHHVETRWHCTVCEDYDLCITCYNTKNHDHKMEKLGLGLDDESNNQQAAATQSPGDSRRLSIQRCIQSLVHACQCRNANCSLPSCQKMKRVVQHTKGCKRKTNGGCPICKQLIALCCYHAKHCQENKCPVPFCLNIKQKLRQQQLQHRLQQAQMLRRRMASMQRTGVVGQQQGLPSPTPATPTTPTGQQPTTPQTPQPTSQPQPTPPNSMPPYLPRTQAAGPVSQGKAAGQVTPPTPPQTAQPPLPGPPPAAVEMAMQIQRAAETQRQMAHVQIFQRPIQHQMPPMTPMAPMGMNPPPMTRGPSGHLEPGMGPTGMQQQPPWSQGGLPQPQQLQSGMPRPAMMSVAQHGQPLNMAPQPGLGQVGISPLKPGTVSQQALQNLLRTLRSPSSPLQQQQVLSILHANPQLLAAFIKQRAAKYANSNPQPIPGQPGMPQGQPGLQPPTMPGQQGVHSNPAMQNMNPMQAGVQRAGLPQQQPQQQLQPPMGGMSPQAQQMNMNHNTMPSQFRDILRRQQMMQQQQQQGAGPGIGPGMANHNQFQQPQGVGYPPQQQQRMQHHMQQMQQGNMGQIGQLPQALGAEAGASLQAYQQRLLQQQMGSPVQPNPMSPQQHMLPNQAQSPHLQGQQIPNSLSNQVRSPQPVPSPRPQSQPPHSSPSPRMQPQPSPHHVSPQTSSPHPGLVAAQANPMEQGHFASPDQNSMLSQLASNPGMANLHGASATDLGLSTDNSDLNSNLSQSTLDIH

| SMILES | Dmax | DC50 |
| --- | --- | --- |
| Cc1cc(-c2ncc(N(C)c3cc(C4CCOCC4)c4oc(=O)n(C)c4c3)cn2)cnc1C(=O)NCC#Cc1ccc2occ(C3CCC(=O)NC3=O)c2c1 (centres unmarked) [Example A114, N-(3-(3-(2,6-dioxo-piperidin-3-yl)benzofuran-5-yl)prop-2-yn-1-yl)-3-methyl-5-(5-(methyl (3-methyl-2-oxo-7-(tetrahydro-2H-pyran-4-yl)-2,3-dihydrobenzo[d]oxazol-5-yl)amino)pyrimidin-2-yl)picolinamide] | < 20% | > 1000 nM |
| Cc1cc(-c2ncc(N(C)c3cc(C(C)C)c4c(c3)n(C)c(=O)n4C)cc2Cl)cnc1C(=O)NCC#Cc1ccc2occ(C3CCC(=O)NC3=O)c2c1 (centres unmarked) [Example A116, 3-chloro-N-(3-(3-(2,6-dioxopiperidin-3-yl)benzofuran-5-yl)prop-2-yn-1-yl)-5-((7-isopropyl-1,3-dimethyl-2-oxo-2,3-dihydro-1H-benzo [d]imidazol-5-yl)(methyl)amino)-5′-methyl-[2,3′-bipyridine]-6′-carboxamide] | > 80% | 1 to 9.9 nM |
| CC(C)c1cc(N2CCCc3cc(-c4ccc(C(=O)NCC#Cc5ccc6occ(C7CCC(=O)NC7=O)c6c5)nc4)c(F)cc32)cc2c1n(C)c(=O)n2C (centres unmarked) [Example A117, N-(3-(3-(2,6-dioxo-piperidin-3-yl)benzofuran-5-yl)prop-2-yn-1-yl)-5-(7-fluoro-1-(7-isopropyl-1,3-dimethyl-2-oxo-2,3-dihydro-1H-benzo [d]imidazol-5-yl)-1,2,3,4-tetrahydro-quinolin-6-yl)picolinamide] | > 80% | 1 to 9.9 nM |
| Cn1c(=O)n(C)c2c(N3CC[Si](C)(C)CC3)nc(-c3cccc4cc(-c5ccc(C(=O)NCC#Cc6ccc7occ(C8CCC(=O)NC8=O)c7c6)nc5)ncc34)cc21 (centres unmarked) [Example A118, 5-(8-(4-(4,4-dimethyl-1,4-azasilinan-1-yl)-1,3-dimethyl-2-oxo-2,3-dihydro-1H-imidazo[4,5-c]pyridin-6-yl)isoquinolin-3-yl)-N-(3-(3-(2,6-dioxopiperidin-3-yl)benzofuran-5-yl)prop-2-yn-1-yl)picolinamide] | 60 to 79% | 10 to 99 nM |
| Cn1c(=O)oc2cc(-c3cccc4cc(-c5ccc(C(=O)NCC#Cc6ccc7occ(C8CCC(=O)NC8=O)c7c6)nc5)ncc34)ccc21 (centres unmarked) [Example A120, N-(3-(3-(2,6-dioxo-piperidin-3-yl)benzofuran-5-yl)prop-2-yn-1-yl)-5-(8-(3-methyl-2-oxo-2,3-dihydrobenzo[d]oxazol-6-yl)isoquinolin-3-yl)picolinamide] | < 20% | > 1000 nM |
| Cn1c(=O)n(C)c2c(C3CCS(=O)(=O)CC3)nc(-c3cccc4cc(-c5ccc(C(=O)NCC#Cc6ccc7occ(C8CCC(=O)NC8=O)c7c6)nc5)ncc34)cc21 (centres unmarked) [Example A123, 5-(8-(4-(1,1-dioxido-tetrahydro-2H-thiopyran-4-yl)-1,3-dimethyl-2-oxo-2,3-dihydro-1H-imidazo [4,5-c]pyridin-6-yl)isoquinolin-3-yl)-N-(3-(3-(2,6-dioxopiperidin-3-yl)benzofuran-5-yl)prop-2-yn-1-yl)picolinamide] | 60 to 79% | 1 to 9.9 nM |
| Cc1cc(-c2ccc(Nc3cc(C(C)C)c4c(c3)n(C)c(=O)n4C)cn2)cnc1C(=O)NCC#Cc1ccc2occ(C3CCC(=O)NC3=O)c2c1 (centres unmarked) [Example A125, N-(3-(3-(2,6-dioxo-piperidin-3-yl)benzofuran-5-yl)prop-2-yn-1-yl)-5-((7-isopropyl-1,3-dimethyl-2-oxo-2,3-dihydro-1H-benzo [d]imidazol-5-yl)amino)-5′-methyl-[2,3′-bipyridine]-6′-carboxamide] | 40 to 59% | 10 to 99 nM |
| Cc1cc(-c2ncc3c(n2)OCCN3c2cnc3c(c2)n(C)c(=O)n3C)cnc1C(=O)NCC#Cc1ccc2occ(C3CCC(=O)NC3=O)c2c1 (centres unmarked) [Example A126, 5-(5-(1,3-dimethyl-2-oxo-2,3-dihydro-1H-imidazo[4,5-b]pyridin-6-yl)-6,7-dihydro-5H-pyrimido[4,5-b] [1,4]oxazin-2-yl)-N-(3-(3-(2,6-dioxo-piperidin-3-yl)benzofuran-5-yl)prop-2-yn-1-yl)-3-methylpicolinamide] | 20 to 39% | 1 to 9.9 nM |
| Cc1cc(-c2cnc(N(C)c3cc(C4CCOCC4)c4c(c3)n(C)c(=O)n4C)cn2)cnc1C(=O)NCC#Cc1ccc2occ(C3CCC(=O)NC3=O)c2c1 (centres unmarked) [Example A128, 5-(5-((1,3-dimethyl-2-oxo-7-(tetrahydro-2H-pyran-4-yl)-2,3-dihydro-1H-benzo[d]imidazol-5-yl)(methyl)amino)pyrazin-2-yl)-N-(3-(3-(2,6-dioxopiperidin-3-yl)benzofuran-5-yl)prop-2-yn-1-yl)-3-methylpicolinamide] | > 80% | 1 to 9.9 nM |
| Cn1cc(-c2ccc3c(c2)n(C)c(=O)n3C)c2cnc(-c3ccc(C(=O)NCC#Cc4ccc5occ(C6CCC(=O)NC6=O)c5c4)nc3)cc2c1=O (centres unmarked) [Example A129, 5-(8-(1,3-dimethyl-2-oxo-2,3-dihydro-1H-benzo[d]imidazol-5-yl)-6-methyl-5-oxo-5,6-dihydro-2,6-naphthyridin-3-yl)-N-(3-(3-(2,6-dioxo-piperidin-3-yl)benzo-furan-5-yl)prop-2-yn-1-yl)picolinamide] | > 80% | 1 to 9.9 nM |
| CN1C(=O)C(C)(C)c2cc(-c3cccc4cc(-c5ccc(C(=O)NCC#Cc6ccc7occ(C8CCC(=O)NC8=O)c7c6)nc5)ncc34)ccc21 (centres unmarked) [Example A130, N-(3-(3-(2,6-dioxo-piperidin-3-yl)benzo-furan-5-yl)prop-2-yn-1-yl)-5-(8-(1,3,3-trimethyl-2-oxoindolin-5-yl)isoquinolin-3-yl)picolinamide] | 20 to 39% | 10 to 99 nM |
| CC(C)c1cc(N2CCOc3cc(-c4ccc(C(=O)NCC#Cc5ccc6occ(C7CCC(=O)NC7=O)c6c5)nc4)c(C#N)cc32)cc2c1n(C)c(=O)n2C (centres unmarked) [Example A134, 5-(6-cyano-4-(7-iso-propyl-1,3-dimethyl-2-oxo-2,3-dihydro-1H-benzo[d]imidazol-5-yl)-3,4-dihydro-2H-benzo[b][1,4]oxazin-7-yl)-N-(3-(3-(2,6-dioxopiperidin-3-yl)benzofuran-5-yl)prop-2-yn-1-yl)picolinamide] | > 80% | 1 to 9.9 nM |
| Cn1c(=O)n(C)c2c(C3CCOCC3)nc(-c3cccc4cc(-c5ccc(C(=O)NCC#Cc6ccc7occ(C8CCC(=O)NC8=O)c7c6)nc5)ncc34)cc21 (centres unmarked) [Example A135, 5-(8-(1,3-dimethyl-2-oxo-4-(tetrahydro-2H-pyran-4-yl)-2,3-dihydro-1H-imidazo[4,5-c]pyridin-6-yl)isoquinolin-3-yl)-N-(3-(3-(2,6-dioxopiperidin-3-yl)benzofuran-5-yl)prop-2-yn-1-yl)picolinamide] | > 80% | 1 to 9.9 nM |
| CCN(c1cnc(-c2cnc(C(=O)NCC#Cc3ccc4occ(C5CCC(=O)NC5=O)c4c3)c(C)c2)c(F)c1)c1cc(C(C)C)c2c(c1)n(C)c(=O)n2C (centres unmarked) [Example A137, N-(3-(3-(2,6-dioxo-piperidin-3-yl)benzofuran-5-yl)prop-2-yn-1-yl)-5-(ethyl(7-isopropyl-1,3-dimethyl-2-oxo-2,3-dihydro-1H-benzo[d]imidazol-5-yl)amino)-3-fluoro-5′-methyl-[2,3′-bipyridine]-6′-carboxamide] | > 80% | 1 to 9.9 nM |
| Cn1c(=O)n(C)c2c(C3CCS(=O)(=O)CC3)nc(N3CCCc4cc(-c5ccc(C(=O)NCC#Cc6ccc7occ(C8CCC(=O)NC8=O)c7c6)nc5)c(C(F)F)cc43)cc21 (centres unmarked) [Example A140, 5-(7-(difluoromethyl)-1-(4-(1,1-dioxido-tetrahydro-2H-thio-pyran-4-yl)-1,3-dimethyl-2-oxo-2,3-dihydro-1H-imidazo[4,5-c]pyridin-6-yl)-1,2,3,4-tetrahydroquinolin-6-yl)-N-(3-(3-(2,6-dioxopiperidin-3-yl)benzofuran-5-yl)prop-2-yn-1-yl)picolinamide] | 40 to 59% | 1 to 9.9 nM |
| Cc1cc(-c2ccc(N(C)c3cc(C(C)C)c4c(c3)n(C)c(=O)n4C)cn2)cnc1C(=O)NCC#Cc1ccc2occ(C3CCC(=O)NC3=O)c2c1 (centres unmarked) [Example A141, N-(3-(3-(2,6-dioxo-piperidin-3-yl)benzofuran-5-yl)prop-2-yn-1-yl)-5-((7-isopropyl-1,3-dimethyl-2-oxo-2,3-dihydro-1H-benzo [d]imidazol-5-yl)(methyl)amino)-5′-methyl-[2,3′-bipyridine]-6′-carboxamide] | > 80% | 1 to 9.9 nM |
| CC(C)c1cc(N2CCC(F)(F)c3cc(-c4ccc(C(=O)NCC#Cc5ccc6occ(C7CCC(=O)NC7=O)c6c5)nc4)ccc32)cc2c1n(C)c(=O)n2C (centres unmarked) [Example A142, 5-(4,4-difluoro-1-(7-isopropyl-1,3-dimethyl-2-oxo-2,3-dihydro-1H-benzo[d]imidazol-5-yl)-1,2,3,4-tetrahydroquinolin-6-yl)-N-(3-(3-(2,6-dioxopiperidin-3-yl)benzofuran-5-yl)prop-2-yn-1-yl)picolinamide] | > 80% | 10 to 99 nM |
| CCn1c(=O)n(C)c2ccc(N3CCOc4nc(-c5ccc(C(=O)NCC#Cc6ccc7occ(C8CCC(=O)NC8=O)c7c6)nc5)ncc43)cc21 (centres unmarked) [Example A143, N-(3-(3-(2,6-dioxo-piperidin-3-yl)benzofuran-5-yl)prop-2-yn-1-yl)-5-(5-(3-ethyl-1-methyl-2-oxo-2,3-dihydro-1H-benzo[d]imidazol-5-yl)-6,7-dihydro-5H-pyrimido[4,5-b] [1,4]oxazin-2-yl)picolinamide] | 20 to 39% | 1 to 9.9 nM |
| Cn1c(=O)oc2cc(N3CCOc4nc(-c5ccc(C(=O)NCC#Cc6ccc7occ(C8CCC(=O)NC8=O)c7c6)nc5)ncc43)ccc21 (centres unmarked) [Example A144, N-(3-(3-(2,6-dioxo-piperidin-3-yl)benzofuran-5-yl)prop-2-yn-1-yl)-5-(5-(3-methyl-2-oxo-2,3-dihydrobenzo[d]oxazol-6-yl)-6,7-dihydro-5H-pyrimido [4,5-b][1,4]oxazin-2-yl)picolinamide] | < 20% | > 1000 nM |
